From PubChem BioAssay AID1963962 (Molecular Pharmacology Branch, DTP, NCI, 2024)

Test system: 967376-340-R-J2-PDC multicell spheroid viability
Assay: Anticancer human tumor 967376-340-R-J2-PDC patient-derived colon adenocarcinoma cell line growth inhibition [PI3K]
Conditions: for IC50: curve of first compound; for viability, T/C: stronger effect = lower value
Excerpt: Combinatorial screen of targeted agents with the PI3K inhibitors inavolisib, alpelisib, duvelisib, and copanlisib in multi-cell type tumor spheroids
A high-throughput screen of multi-cell type tumor spheroids was designed to identify active combinations of targeted small molecules and PI3K pathway inhibitors. Complex spheroids include a stromal component modeled by human endothelial cells (HUVEC) and fibroblasts modeled by human mesenchymal stem cells (MSCs). The concentration ranges selected for each drug and investigational agent were based upon clinically achievable concentrations if the clinical Cmax of the agent was known.
Compounds. The drugs and investigational agents: inavolisib (NSC800729), alpelisib (NSC765974), duvelisib (NSC772469), copanlisib (NSC816437), ipatasertib (NSC767898), afuresertib (NSC778305), talazoparib (NSC767125), sapanisertib (NSC764658), selumetinib (NSC741078), tovorafenib (DAY101, NSC766906), vemurafenib (NSC761431), ravoxertinib (NSC781343), sotorasib (NSC818433), MRTX1133 (NSC 836407), abemaciclib (NSC 768073), palbociclib (NSC758247), venetoclax (NSC 766270), SY5609 (NSC837396), enzalutamide (NSC755605), and darolutamide (NSC825331), were obtained from the National Cancer Institute (NCI) Developmental Therapeutics Program Chemical Repository. The FDA-approved anticancer drug set is available from the NCI Developmental Therapeutics Program. […] The stock solutions were prepared in dimethyl sulfoxide (DMSO, Sigma-Aldrich, St. Louis, MO, cat. D2650) at 800-fold the tested concentration and stored at -70 degrees C prior to their use. All drugs and investigational agents were tested over a range starting from a high concentration at or near the clinical Cmax and decreasing in half-log increments. If the clinical Cmax for an agent had not been determined, the highest concentration tested was 10 microM.
Cell Culture. All cells were maintained in an incubator at 37 degrees C and 5% CO2 with 95% humidity. The PDC lines were cultured according to standard operating procedures established by the NCI PDMR (https://pdmr.cancer.gov/sops/default.htm). All PDCs were thawed and cultured in Matrigel-coated flasks prepared with a working solution of 1X Ham's F-12 nutrient mix, without supplementation (Invitrogen, Waltham, MA, cat. 11765054), 100 U/mL penicillin-streptomycin (Invitrogen, cat. 15140122), and 2.5% Matrigel (Corning Inc., Corning, NY, cat. 354248) for the first three passages. The 354836-022-R-J1-PDC, 475296-252-R-J1-PDC, and 997726-040-R-J2-PDC lines were cultured in 6A media, which includes advanced DMEM/F-12 (Thermo Fisher Scientific, cat. 12634028), 10 mM HEPES (Thermo Fisher Scientific, cat. 15630080), 1X GlutaMAX supplement (Thermo Fisher Scientific, cat. 35050061), 0.1 mg/mL primocin (InvivoGen, San Diego, CA, cat. ant-pm-2), 10% defined fetal bovine serum, heat inactivated (HyClone Laboratories Inc., Logan, UT, cat. SH30070.03HI), 50% L-WRN conditioned media (ATCC, cat. CRL-3276), 1.25 mM N-Acetyl-L-cysteine (Sigma-Aldrich, cat. A9165), 10 mM nicotinamide (Sigma-Aldrich, cat. N0636), 1X B-27 supplement (Thermo Fisher Scientific, cat. 17504044), 1X N-2 supplement (Thermo Fisher Scientific, cat. 17502048), and 10 microM Y-27632 dihydrochloride (Tocris Bioscience, Bristol, United Kingdom, cat. 1254). The 624824-186-R-J2-PDC line was cultured in 6C/Colon 1B media, which includes all 6A media components plus 50 ng/mL human EGF recombinant protein (Thermo Fisher Scientific, cat. PHG0311). […]
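Also: spheroids exposed to agents for 7 days before read-out.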
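For viability, T/C in this document: luminescence used as surrogate of cell viability.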

IC50 (second compound 0.00316 µM): > 1 µM | IC50 (second compound 0.01 µM): > 1 µM | IC50 (second compound 0.0316 µM): > 1 µM | IC50 (second compound 0.1 µM): 0.793 µM | IC50 (second compound 0.316 µM): 0.109 µM | IC50 (second compound 1 µM): 0.0551 µM
SMILES: CCN1CCN(Cc2ccc(Nc3ncc(F)c(-c4cc(F)c5nc(C)n(C(C)C)c5c4)n3)nc2)CC1 + CC(Nc1ccc2c(c1)OCCn1cc(N3C(=O)OCC3C(F)F)nc1-2)C(N)=O
viability, T/C (second compound 0.00316 µM, first compound 0.00316 µM): 94.2% | viability, T/C (second compound 0.00316 µM, first compound 0.01 µM): 73.2% | viability, T/C (second compound 0.00316 µM, first compound 0.0316 µM): 86.9% | viability, T/C (second compound 0.00316 µM, first compound 0.1 µM): 75.2% | viability, T/C (second compound 0.00316 µM, first compound 0.316 µM): 80.9% | viability, T/C (second compound 0.00316 µM, first compound 1 µM): 70.5% | viability, T/C (second compound 0.01 µM, first compound 0.00316 µM): 94.9% | viability, T/C (second compound 0.01 µM, first compound 0.01 µM): 74.8% | viability, T/C (second compound 0.01 µM, first compound 0.0316 µM): 71.4% | viability, T/C (second compound 0.01 µM, first compound 0.1 µM): 93.2% | viability, T/C (second compound 0.01 µM, first compound 0.316 µM): 69.5% | viability, T/C (second compound 0.01 µM, first compound 1 µM): 67.7% | viability, T/C (second compound 0.0316 µM, first compound 0.00316 µM): 77.6% | viability, T/C (second compound 0.0316 µM, first compound 0.01 µM): 81.3% | viability, T/C (second compound 0.0316 µM, first compound 0.0316 µM): 79.2% | viability, T/C (second compound 0.0316 µM, first compound 0.1 µM): 86.8% | viability, T/C (second compound 0.0316 µM, first compound 0.316 µM): 63.4% | viability, T/C (second compound 0.0316 µM, first compound 1 µM): 52.3% | viability, T/C (second compound 0.1 µM, first compound 0.00316 µM): 62.7% | viability, T/C (second compound 0.1 µM, first compound 0.01 µM): 64.6% | viability, T/C (second compound 0.1 µM, first compound 0.0316 µM): 69.8% | viability, T/C (second compound 0.1 µM, first compound 0.1 µM): 65.1% | viability, T/C (second compound 0.1 µM, first compound 0.316 µM): 47.3% | viability, T/C (second compound 0.1 µM, first compound 1 µM): 51.3% | viability, T/C (second compound 0.316 µM, first compound 0.00316 µM): 62.7% | viability, T/C (second compound 0.316 µM, first compound 0.01 µM): 54.9% | viability, T/C (second compound 0.316 µM, first compound 0.0316 µM): 57.4% | viability, T/C (second compound 0.316 µM, first compound 0.1 µM): 47.5% | viability, T/C (second compound 0.316 µM, first compound 0.316 µM): 48.6% | viability, T/C (second compound 0.316 µM, first compound 1 µM): 42.5% | viability, T/C (second compound 1 µM, first compound 0.00316 µM): 59.4% | viability, T/C (second compound 1 µM, first compound 0.01 µM): 52.2% | viability, T/C (second compound 1 µM, first compound 0.0316 µM): 54.2% | viability, T/C (second compound 1 µM, first compound 0.1 µM): 49.3% | viability, T/C (second compound 1 µM, first compound 0.316 µM): 35.5% | viability, T/C (second compound 1 µM, first compound 1 µM): 26%
